Assay results: patent US20100297073A1, “HETEROCYCLIC ANTIVIRAL COMPOUNDS” (priority 2009, published 2010)

Key:
[1] = target: T1, HCV polymerase (NS5B570n-Con1) (Hepatitis C virus genotype 1b, UniProt Q9WMX2); test: biochemical; set-up: species or system HCV Con1 strain
T1 construct: contains a 21 amino acid deletion at the C-terminus relative to the full-length HCV polymerase; 6-histidine (N); made in house; host or cells: E. coli BL21(DE) pLysS, plasmid pET17b
Experimental: HCV NS5B RNA Polymerase Activity
The enzymatic activity of HCV polymerase (NS5B570n-Con1) was measured as the incorporation of radiolabeled nucleotide monophosphates into acid insoluble RNA products. Unincorporated radiolabeled substrate was removed by filtration and scintillant was added to the washed and dried filter plate containing radiolabeled RNA product. The amount of RNA product generated by NS5B570-Con1 at the end of the reaction was directly proportional to the amount of light emitted by the scintillant.
The N-terminal 6-histidine tagged HCV polymerase, derived from HCV Con1 strain, genotype 1b (NS5B570n-Con1) contains a 21 amino acid deletion at the C-terminus relative to the full-length HCV polymerase and was purified from E. coli strain BL21(DE) pLysS. The construct, containing the coding sequence of HCV NS5B Con1 (GenBank accession number AJ242654) was inserted into the plasmid construct pET17b, downstream of a T7 promoter expression cassette and transformed into E. coli. A single colony was grown overnight as a starter culture and later used inoculate 10 L of LB media supplemented with 100 μg/mL ampicillin at 37° C. Protein expression was induced by the addition of 0.25 mM isopropyl-β-D-thiogalactopyranoside (IPTG) when optical density at […] of the culture was between 0.6 and 0.8 and cells were harvested after 16 to 18 h at 30° C. NS5B570n-Con1 was purified to homogeneity using a three-step protocol including subsequent column chromatography on Ni-NTA, SP-Sepharose HP and Superdex 75 resins.
Data was analyzed in Excel® (Microsoft®) and ActivityBase® (idbs®). The reaction in the absence of enzyme was used to determine the background signal, which was subtracted from the enzymatic reactions. […] All data was expressed as a percentage of the positive control.
the data where “Y” corresponds to the relative enzyme activity (in %), “% Min” is the residual relative activity at saturating compound concentration, “% Max” is the relative maximum enzymatic activity, “X” corresponds to the compound concentration, and “S” is the Hill coefficient (or slope).

[2] = tested on: genotype 1b HCV replicon in Huh7 cell line 2209-23; test: HCV replicon assay (Renilla luciferase reporter); format: cell-based; details: Hepatitis C virus, Huh-7, 72 h; 2209-23 cells, three days incubation, luciferase readout
[3] = in vitro; details: human
[4] = tested on: HCV; details: cited from earlier work

Row | SMILES | IC50 [1] | melting point | also measured
1 | COc1c(C2=CCc3cc(NS(C)(=O)=O)ccc3O2)cc(-c2ccc[nH]c2=O)cc1C(C)(C)C [Compound I-2, N-{2-[3-tert-Butyl-2-methoxy-5-(2-oxo-1,2-dihydro-pyridin-3-yl)-phenyl]-4H-chromen-6-yl}-methanesulfonamide] | 14 nM |  | 
2 | COc1c(C2Cc3ccc(NS(C)(=O)=O)cc3C(=O)O2)cc(-c2ccc[nH]c2=O)cc1C(C)(C)C (centres unmarked) [Compound I-9, N-{3-[3-tert-Butyl-2-methoxy-5-(2-oxo-1,2-dihydro-pyridin-3-yl)-phenyl]-1-oxo-isochroman-7-yl}-methanesulfonamide] | 6 nM |  | 
3 | COc1c(C2Cc3ccc(NS(C)(=O)=O)cc3CO2)cc(-c2ccc[nH]c2=O)cc1C(C)(C)C (centres unmarked) [Compound I-10, N-{3-[3-tert-Butyl-2-methoxy-5-(2-oxo-1,2-dihydro-pyridin-3-yl)-phenyl]-isochroman-7-yl}-methanesulfonamide] | 1 nM | 170 to 175 °C | 
4 | COc1c(-c2cc3ccc(NS(C)(=O)=O)cc3c(=O)o2)cc(-c2c[nH]c(=O)[nH]c2=O)cc1C(C)(C)C [Compound I-14, N-{3-[3-tert-Butyl-5-(2,4-dioxo-1,2,3,4-tetrahydro-pyrimidin-5-yl)-2-methoxy-phenyl]-1-oxo-1H-isochromen-7-yl}-methanesulfonamide] | 1 nM | > 300 °C | 
5 | COc1c(C2CCc3cc(NS(C)(=O)=O)ccc3O2)cc(-c2ccc[nH]c2=O)cc1C(C)(C)C (centres unmarked) [Compound I-3, N-{2-[3-tert-Butyl-2-methoxy-5-(2-oxo-1,2-dihydro-pyridin-3-yl)-phenyl]-chroman-6-yl}-methanesulfonamide] | 1 nM |  | 
6 | COc1c(-c2cc3ccc(NS(C)(=O)=O)cc3c(=O)[nH]2)cc(-c2ccc[nH]c2=O)cc1C(C)(C)C [Compound I-11, N-{3-[3-tert-Butyl-2-methoxy-5-(2-oxo-1,2-dihydro-pyridin-3-yl)-phenyl]-1-oxo-1,2-dihydro-isoquinolin-7-yl}-methanesulfonamide] | 4 nM | 252 to 254 °C | IC50 [2]: 1 nM; CC50 [3]: 42600 nM
7 | NC(=O)c1ncn([C@@H]2O[C@H](CO)[C@@H](O)[C@H]2O)n1 [Ribavirin, 1-((2R,3R,4S,5R)-3,4-Dihydroxy-5-hydroxymethyl-tetrahydro-furan-2-yl)-1H-[1,2,4]triazole-3-carboxylic acid amide] |  |  | effect on serum levels of HCV-RNA ([4]; monotherapy / sole treatment): does not lower serum levels of HCV-RNA; patients with serum amino transferase levels reduced to normal ([4]; monotherapy): 40%
8 | COc1ccc(-c2cc(-c3cc4ccc(NS(C)(=O)=O)cc4c(=O)o3)c(OC)c(C(C)(C)C)c2)c(=O)[nH]1 |  | 231 to 233 °C | 
9 | COc1c(-c2cc3ccccc3c(=O)o2)cc(-c2ccc[nH]c2=O)cc1C(C)(C)C [Compound I-7, 3-[3-tert-Butyl-4-methoxy-5-(1-oxo-1H-isochromen-3-yl)-phenyl]-1H-pyridin-2-one] | 2 nM | 253 to 255 °C | 
10 | CC(C)(C)c1cc(-c2cc3ccc(NS(C)(=O)=O)cc3c(=O)o2)cc(-c2ccc[nH]c2=O)c1 [Compound I-5, N-{3-[3-tert-Butyl-5-(2-oxo-1,2-dihydro-pyridin-3-yl)-phenyl]-1-oxo-1H-isochromen-7-yl}-methanesulfonamide] | 9 nM | > 300 °C | 
11 | COc1c(-c2nc3ccc(NS(C)(=O)=O)cc3c(=O)[nH]2)cc(-c2ccc[nH]c2=O)cc1C(C)(C)C [Compound I-13, N-{2-[3-tert-Butyl-2-methoxy-5-(2-oxo-1,2-dihydro-pyridin-3-yl)-phenyl]-4-oxo-3,4-dihydro-quinazolin-6-yl}-methanesulfonamide] | 9 nM | 228 to 230 °C | 
12 | COc1c(-c2cc3ccc(NS(C)(=O)=O)cc3c(=O)o2)cc(-c2cc(F)c[nH]c2=O)cc1C1(C(F)F)CC1 [Compound I-15] | 0.2 nM |  | 
13 | COc1c(-c2cc3ccccc3c(=O)[nH]2)cc(-c2ccc[nH]c2=O)cc1C(C)(C)C |  | 138 to 140 °C | 
14 | COc1c(-c2cc(=O)c3cc(NS(C)(=O)=O)ccc3o2)cc(-c2ccc[nH]c2=O)cc1C(C)(C)C [Compound I-1, N-{2-[3-tert-Butyl-2-methoxy-5-(2-oxo-1,2-dihydro-pyridin-3-yl)-phenyl]-4-oxo-4H-chromen-6-yl}-methanesulfonamide] | 3 nM | > 300 °C | 
15 | COc1c(-c2cc3ccc(NS(C)(=O)=O)cc3c(=O)o2)cc(-c2cc(F)c[nH]c2=O)cc1C(C)(C)C [Compound I-6, N-{3-[3-tert-Butyl-5-(5-fluoro-2-oxo-1,2-dihydro-pyridin-3-yl)-2-methoxy-phenyl]-1-oxo-1H-isochromen-7-yl}-methanesulfonamide] | 3 nM | 295 to 297 °C | 
